Source: ChEMBL document CHEMBL4428125, “8-Substituted 1,3-dimethyltetrahydropyrazino[2,1-f]purinediones: Water-soluble adenosine receptor antagonists and monoamine oxidase B inhibitors” (Bioorg Med Chem, 2016)
Active and inactive are the calls of the source. The rule behind the calls is not given here.

Tests used:
Adenosine receptor A2a [1] = biological target: T1, Adenosine receptor A2a (Homo sapiens, UniProt P29274); assay: Agonist activity at recombinant human A2A receptor expressed in CHO cells assessed as increase in forskolin-induced cAMP level at 1 uM preincubated for 20 mins prior to forskolin-stimulation measure after 5 mins by liquid scintillation counting method; assay type: functional, cell-based
T1 sequence (P29274 whole entry): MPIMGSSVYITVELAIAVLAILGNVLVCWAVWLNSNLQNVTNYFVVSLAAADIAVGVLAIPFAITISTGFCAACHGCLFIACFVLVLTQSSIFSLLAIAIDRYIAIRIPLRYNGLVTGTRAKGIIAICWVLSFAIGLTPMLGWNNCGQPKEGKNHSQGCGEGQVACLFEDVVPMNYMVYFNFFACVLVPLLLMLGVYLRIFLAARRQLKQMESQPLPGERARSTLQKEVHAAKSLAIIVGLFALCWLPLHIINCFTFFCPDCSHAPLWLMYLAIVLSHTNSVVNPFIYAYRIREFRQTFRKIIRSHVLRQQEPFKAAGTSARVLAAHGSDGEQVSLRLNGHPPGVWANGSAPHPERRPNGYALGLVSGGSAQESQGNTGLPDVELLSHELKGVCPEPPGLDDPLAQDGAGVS

[2] = biological target: T2, Adenosine receptor A1 (Homo sapiens) (UniProt P30542); assay: Agonist activity at recombinant human A1 receptor expressed in CHO cells assessed as inhibition of forskolin-induced cAMP accumulation at 10 uM preincubated for 20 mins prior to forskolin-stimulation measure after 5 mins by liquid scintillation counting method; assay type: functional, cell-based
T2 sequence (whole entry): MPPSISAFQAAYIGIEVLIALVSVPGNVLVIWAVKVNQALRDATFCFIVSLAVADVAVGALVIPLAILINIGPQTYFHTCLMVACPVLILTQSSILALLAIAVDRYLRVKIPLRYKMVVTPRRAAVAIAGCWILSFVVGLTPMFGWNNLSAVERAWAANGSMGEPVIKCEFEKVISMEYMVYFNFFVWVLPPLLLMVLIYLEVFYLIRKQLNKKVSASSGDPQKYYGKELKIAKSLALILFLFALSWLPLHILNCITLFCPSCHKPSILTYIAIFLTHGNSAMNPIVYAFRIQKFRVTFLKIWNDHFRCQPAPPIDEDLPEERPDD

[3] = biological target: T3, Adenosine receptor A2b (Homo sapiens) (UniProt P29275); assay: Displacement of [3H]PSB-603 from human A2B receptor expressed in CHO cell membrane at 0.3 uM relative to control; assay type: cell membranes
T3 sequence (whole entry): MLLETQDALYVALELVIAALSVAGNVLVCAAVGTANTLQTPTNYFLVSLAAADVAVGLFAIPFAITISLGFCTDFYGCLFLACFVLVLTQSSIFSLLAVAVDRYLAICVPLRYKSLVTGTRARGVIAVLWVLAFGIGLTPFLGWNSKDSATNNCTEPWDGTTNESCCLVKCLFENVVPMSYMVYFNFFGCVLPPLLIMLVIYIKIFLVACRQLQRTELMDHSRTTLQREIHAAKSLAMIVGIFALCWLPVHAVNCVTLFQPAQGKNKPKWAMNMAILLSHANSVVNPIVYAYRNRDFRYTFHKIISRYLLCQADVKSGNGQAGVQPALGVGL

[4] = biological target: T2, Adenosine receptor A1 (Homo sapiens); assay: Agonist activity at recombinant human A1 receptor expressed in CHO cells assessed as inhibition of forskolin-induced cAMP accumulation at 1 uM preincubated for 20 mins prior to forskolin-stimulation measure after 5 mins by liquid scintillation counting method; assay type: functional, cell-based
Adenosine receptor A3 = biological target: T4, Adenosine receptor A3 (Homo sapiens, UniProt P0DMS8); assay: Displacement of [3H]PSB-11 from human A3 receptor expressed in CHO cell membrane by liquid scintillation counting method relative to control; assay type: cell membranes
T4 sequence (P0DMS8 whole entry): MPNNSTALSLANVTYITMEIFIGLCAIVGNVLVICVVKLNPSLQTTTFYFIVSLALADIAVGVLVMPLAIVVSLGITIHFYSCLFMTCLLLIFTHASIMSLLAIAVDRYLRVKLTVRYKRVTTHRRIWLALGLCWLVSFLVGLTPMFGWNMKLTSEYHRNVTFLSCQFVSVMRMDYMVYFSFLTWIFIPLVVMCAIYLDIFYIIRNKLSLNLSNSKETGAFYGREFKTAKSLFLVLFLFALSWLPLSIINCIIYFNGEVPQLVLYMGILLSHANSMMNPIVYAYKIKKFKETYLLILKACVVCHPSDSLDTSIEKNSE

Adenosine receptor A1 = biological target: T5, Adenosine receptor A1 (Rattus norvegicus, UniProt P25099); assay: Displacement of [3H]CCPA from A1 receptor in rat brain cortex membranes by liquid scintillation counting method; assay type: cell membranes
T5 sequence (P25099 whole entry): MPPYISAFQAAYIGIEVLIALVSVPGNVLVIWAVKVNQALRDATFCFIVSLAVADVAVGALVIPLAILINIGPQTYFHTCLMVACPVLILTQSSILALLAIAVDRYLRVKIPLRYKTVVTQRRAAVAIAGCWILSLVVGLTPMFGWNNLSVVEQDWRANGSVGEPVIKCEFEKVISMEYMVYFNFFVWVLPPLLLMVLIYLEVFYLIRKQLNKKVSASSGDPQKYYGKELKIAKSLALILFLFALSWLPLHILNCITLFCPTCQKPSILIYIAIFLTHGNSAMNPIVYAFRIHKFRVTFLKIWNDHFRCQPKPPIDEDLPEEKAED

Adenosine receptor A2a [5] = biological target: T1, Adenosine receptor A2a; assay: Agonist activity at recombinant human A2A receptor expressed in CHO cells assessed as increase in forskolin-induced cAMP level at 10 uM preincubated for 20 mins prior to forskolin-stimulation measure after 5 mins by liquid scintillation counting method; assay type: functional, cell-based
[6] = biological target: T2, Adenosine receptor A1 (Homo sapiens); assay: Displacement of [3H]CCPA from human A1 receptor expressed in CHO cell membrane at 10 uM by liquid scintillation counting method; assay type: cell membranes
[7] = biological target: T6, Adenosine receptor A1 (Rattus norvegicus) (UniProt P25099); assay: Displacement of [3H]CCPA from A1 receptor in rat brain cortex membranes at 1.5 uM by liquid scintillation counting method; assay type: cell membranes
T6 sequence (whole entry): T5 sequence (P25099 whole entry)

[8] = biological target: T3, Adenosine receptor A2b (Homo sapiens); assay: Displacement of [3H]PSB-603 from human A2B receptor expressed in CHO cell membrane at 1 uM relative to control; assay type: cell membranes
[9] = biological target: T7, Adenosine receptor A3 (Homo sapiens) (UniProt P0DMS8); assay: Displacement of [3H]PSB-11 from human A3 receptor expressed in CHO cell membrane at 10 uM by liquid scintillation counting method relative to control relative to control; assay type: cell membranes
T7 sequence (whole entry): T4 sequence (P0DMS8 whole entry)

Row | Structure (SMILES) | Activity (Adenosine receptor A2a [1]) | Activity [2] | Activity [3] | Activity [4] | Ki (Adenosine receptor A3) | Ki (Adenosine receptor A1) | Activity (Adenosine receptor A2a [5]) | Activity [6] | Activity [7] | Activity [8] | Activity [9]
1 | Cn1c(=O)c2c(nc3n2CCN([C@@H]2CCCc4ccccc42)C3)n(C)c1=O | inactive | inactive | 1% | inactive | 14 µM | 0.1 µM | inactive |  |  |  | 
2 | Cn1c(=O)c2c(nc3n2CCN(c2cccc(Cl)c2)C3)n(C)c1=O |  |  |  |  | > 10 µM |  |  | 37% | 37% | 23% | 20%
